Source: patent publication US20080051419A1, “AMINE DERIVATIVES USEFUL AS ANTICANCER AGENTS” (PFIZER INC., priority 2006, published 2008)
Read-outs that look alike come from different tables or passages of the source.

What was measured:
Akt1 = biological target: T1, Akt1 (Homo sapiens, UniProt P31749, S473D); test: Akt1 kinase assay, fluorescence polarization (IMAP); type: biochemical
T1 construct: The version of Akt used in these studies lacks the pleckstrin homology (PH) domain
How it was run: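 His-tagged Akt1 lacking the PH domain, Thr308-prephosphorylated, 1.5 ng per reaction, with 4 μM ATP and 40 nM TAMRA-Crosstide (solution concentrations) in Tris pH 7.5/MgCl2/DTT buffer. Incubated 30 min at ambient temperature; IMAP fluorescence polarization read (544/615 nm). IC50 after subtraction of no-enzyme background.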

[1] = biological target: T2, PKA, catalytic subunit, recombinant (Homo sapiens, UniProt P17612); test: PKA IMAP Kinase Assay; type: biochemical; conditions: for Selectivity Ratio (PKA/Akt): PKA IC50 divided by Akt IC50; for IC50: Table 6, selectivity study
T2 construct: purchased Upstate 14-440
Method: The PKA Kinase assay is used to measure the selectivity of the compounds of formula I for PKA kinase as discussed below. The PKA activity of the compounds of formula I was determined using the PKA IMAP® Kinase Assay (G7096A).
Materials: • 1) Kinase Reaction Buffer (RB):—10 mM Tris-HCl, pH 7.5, 10 mM MgCl2, 0.1 mM EGTA, 0.01% Triton-X 100 (Sigma #X-100); 1 mM DTT (N.E. Biolabs #B7705S) added fresh • 2) ATP (Sigma #5394) 10 mM stock in H2O, −20° C. • 3) 20 μM working stock TAMRA Kemptide (TK. Molecular Devices #R7332): [N-Term]TMRS-Leu-Arg-Arg-Ala-Ser-Leu-Gly-OH[C-Term] • 4) PKA, catalytic subunit, recombinant (Upstate #14-440). 5 ug/25 ul lot 22361AU • 5) DMSO (Baker #9224-01) • 6) IMAP® Progressive Express Screening Kit for IPP (Molecular Devices #R8124) Includes IMAP® Progressive Beads and Binding Buffer • 7) 96-well ½ area plates, black polystyrene, Costar #3694 • 8) 96-well round bottom polypropylene plates, Costar #9667
NOTE: Protect all Tamra-Containing Reagents from Light.
• 1) Prepare the 1× Reaction Buffer (RB) by fresh addition of DTT to 1 mM • 2) For single point testing, make up compound dilution plate as follows: “96 well plates; Row Empty: empty; 84 cmpds” are added to the remaining wells at […]. • 3) For 150 determination: To column 2 of polypropylene plate add 100 ul 100% DMSO; to all other wells add 60 ul 100% DMSO. • 4) Pipet 2 ul 10 mM stock compound to column 2; mix well • 5) Serially dilute 1:3 across from column 2-11, transferring 30 ul to next well and mixing well. • 6) Leave column 12 for zero compound (control signal) • 7) For Single Point testing (10 uM final) add 1 ul 10 mM compound to 100 ul DMSO; mix; transfer 5 ul to 120 ul RB; mix; transfer 5 ul to Assay Plate • 8) For 150 determination: Make up compound RB dilution plate: 60 μl/well RB in 96-well polypropylene round bottom plate. • 9) Transfer compounds to assay plate as follows: Mix DMSO dilutions; transfer 15 μl to 60 μl RB; transfer 5 μl/well to assay plates (single points, triplicate plates), delivering carefully to the bottom of the well; repeat for each dilution up to 10 μM. • 10) To run PKA Reactions: Make up ATP/KT solution; 4 uM ATP, 200 nM KT ([…], 100 nM KTfinal) • 11) Pipet 10 μl KT/ATP to wells containing compound. • 12) Make up protein solution in RB and determine the protein concentration. • 13) Deliver 5 μl protein solution to all wells except A1-H1, delivering to the upper region of the side of the well; Add 5 μl RB to A1-H1 (these are the 0 protein background controls) • 14) Gently tap the plate to ensure all volumes get to the bottom. Cover with foil lid. • 15) Incubate RT on bench top 30 minutes. • 16) Add 60 μl IMAP® beads in IMAP® Progressive binding buffer (100% A) diluted 1:1000 • 17) Read on VICTOR™ plate reader (protocol LissieTAMRA2) with the following settings: CW lamp filter 544 nm; emission filter 615 nm. Some adjustments may be made to the plate reader protocol depending on the reader and available filters. • 18) Use XLDA to calculate IC50s.

[2] = Table 6, selectivity study, read-out: Akt Kinase Activity
[3] = Table 1, concentration bins, read-out: Concentration Range at which exemplary compounds of formula I inhibit Akt kinase activity
[4] = read-out: Avg Akt kinase, μM (50% inhibition)
[5] = Table 3, read-out: Avg Akt kinase, μM (50% inhibition)

T1 sequence (P31749 118-480 S473D limits assumed, species assumed): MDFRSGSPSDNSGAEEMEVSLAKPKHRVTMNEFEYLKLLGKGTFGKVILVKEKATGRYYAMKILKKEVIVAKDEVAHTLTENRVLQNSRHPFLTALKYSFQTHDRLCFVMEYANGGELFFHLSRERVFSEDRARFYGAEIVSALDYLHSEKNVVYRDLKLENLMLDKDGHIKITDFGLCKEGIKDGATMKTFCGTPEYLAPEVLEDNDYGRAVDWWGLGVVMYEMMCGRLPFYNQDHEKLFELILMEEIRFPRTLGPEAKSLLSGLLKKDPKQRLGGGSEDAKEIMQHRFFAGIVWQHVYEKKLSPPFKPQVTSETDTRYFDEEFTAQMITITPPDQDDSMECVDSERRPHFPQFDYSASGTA

Compound	IC50 (Akt1; [2])	Selectivity Ratio (PKA/Akt) [1]	IC50 [1]	IC50 (Akt1; [3])	IC50 (Akt1; [4])	also measured
Cc1c[nH]c2ncnc(N3CCC(N)(CNc4ccc(Cl)cc4)CC3)c12 [BB, 4-(4-chloro(phenylamino)methyl)-1-(5-methyl-7H-pyrrolo[2,3-d]pyrimidin-4-yl)piperidin-4-amine, reference compound]	0.0459 µM	0.57	26.3 nM			
Cc1c[nH]c2ncnc(N3CCC(N)(CN(C)C(=O)c4ccc(Cl)cc4)C3)c12 (stereo not drawn) [Example 196, N-((3-amino-1-(5-methyl-7H-pyrrolo[2,3-d]pyrimidin-4-yl)pyrrolidin-3-yl)methyl)-4-chloro-N-methylbenzamide]				0.101 to 10 µM	0.123 µM	
Cc1c[nH]c2ncnc(N3CCC(N)(CN(C)C(=O)c4ccccc4F)C3)c12 (stereo not drawn) [Example 197, N-((3-amino-1-(5-methyl-7H-pyrrolo[2,3-d]pyrimidin-4-yl)pyrrolidin-3-yl)methyl)-2-fluoro-N-methylbenzamide]				0.101 to 10 µM	0.148 µM	
(E)-3-(3-trifluoromethyl)styryl)-1-(5-methyl-7H-pyrrolo[2,3-d]pyrimidin-4-yl)-3-amine [Example 68]						IC50 (Akt1; average Akt kinase activity (IC50), read-out: Avg Akt kinase, μM (50% inhibition)): 1.14 µM
N-{[3-amino-1-(1H-pyrrolo[2,3-b]pyridin-4-yl)pyrrolidin-3-yl]methyl}-5-chloropyrimidin-2-amine [Example 59]						IC50 (Akt1; [5]): 0.0035 µM
N-{[3-amino-1-(5-methyl-7H-pyrrolo[2,3-d]pyrimidin-4-yl)pyrrolidin-3-yl]methyl}pyrimidin-2-amine [Example 58]						IC50 (Akt1; [5]): 0.123 µM

Second part, led by results:

IC50 (Akt1; [2])	Selectivity Ratio (PKA/Akt) [1]	IC50 [1]	IC50 (Akt1; [3])	IC50 (Akt1; [4])	Compound	also measured
			0.0101 to 0.1 µM	0.00267 µM	Cc1c[nH]c2ncnc(N3CCC(N)(CNS(=O)(=O)c4c(F)cccc4F)C3)c12 (stereo not drawn) [Example 198, N-{[3-amino-1-(5-methyl-7H-pyrrolo[2,3-d]pyrimidin-4-yl)pyrrolidin-3-yl]methyl}-2,6-difluorobenzenesulfonamide]	
0.162 µM	15.93	2580 nM			Cc1c[nH]c2ncnc(N3CCC(N)(CNc4ccccc4)C3)c12 (stereo not drawn) [Example 199, 3-((phenylamino)methyl)-1-(5-methyl-7H-pyrrolo[2,3-d]pyrimidin-4-yl)pyrrolidin-3-amine]	
0.118 µM	2.36	279 nM			Cc1c[nH]c2ncnc(N3CCC(N)(CNc4ccc(Cl)cc4)C3)c12 (stereo not drawn) [Example 200, 3-(4-chloro(phenylamino)methyl)-1-(5-methyl-7H-pyrrolo[2,3-d]pyrimidin-4-yl)pyrrolidin-3-amine]	
